Test results: patent US12416018B2, “Regulation of gene expression by aptamer-mediated modulation of alternative splicing” (MEIRAGTX GENE REGULATION LIMITED, priority 2015, dated 2025)
Substitutions are numbered along the chain they refer to. Entries after “also recorded” stand apart in the source; their conditions may differ. Read-outs that look alike come from different tables or passages of the source.

Key:
[1] = system: luciferase gene with two copies of the xpt-G15 containing regulatory cassette (xpt-G15 double); experiment: Live animal bioluminescence imaging after hydrodynamic DNA delivery to mouse liver; type: in vivo, mice
Method: Hydrodynamic DNA delivery and drug treatment: 5 μg or 10 μg of endotoxin-free plasmid DNA containing the luciferase gene with two copies of the xpt-G15 containing regulatory cassette (xpt-G15 double, SEQ ID NO.: 64; Example 8, FIG. 8a), diluted in saline (Qiagen Endofree kit) was injected through tail vein in a volume of 10% body weight over 5 to 10 seconds to 6-7 weeks old CD-1 female mice. Guanosine (Sigma) was suspended in 0.5% methylcellulose/0.25% Tween 80 (Sigma) in water freshly and administrated orally at 2 hr and 12 hr post DNA injection, or, delivered through intraperitoneal injection (IP) at 5 hr, 12 hr, 16 hr and 24 hr post DNA delivery.
Noninvasive live animal bioluminescence imaging: before imaging, mice were anesthesized with 2% isoflurane, and injected with […] body weight of luciferin, and images were taken within 2 to 5 minutes after luciferin injection using Bruker Xtreme system at the indicated time point post DNA injection. Luciferase activity was expressed as mean photon/sec±s.d. The induction fold was calculated as the quotient of photon/sec obtained in mice treated with guanosine divided by value obtained in mice without guanosine treatment.

[2] = system: luciferase expression in HEK 293 cells; type: cell-based; settings: for induced luciferase level as percent of Con1 (maximal expression): guanine treatment (500 μM), HEK 293 cells; for fold induction of luciferase expression over un-induced baseline: 500 µM; for regulation of luciferase expression by guanine (in words): with or without 500 μM guanine
Method: (§1) Xpt-guanine aptamer with the following sequence: cactcatataat[…]cgact atgggtg (SEQ ID NO.: 10), was used to construct a riboswitch. Oligos containing the sequence of guanine aptamer and hairpin stem with 4 nucleotide 5′ overhang were synthesized (IDT), annealed and then ligated to BsaI-digested DHFR-acceptor vector. HEK 293 cells were transfected as described in Example 1. Four hours after transfection, the media was aspirated, and new media with or without 500 μM guanine was added. Luciferase expression was assayed 20 to 24 hrs after guanine treatment as described in Example 1 and Example 4. HepG2, AML12, RD and C2C12 (ATCC) were cultured using the protocol recommended by ATCC. The intron-exon-intron cassette containing the xpt-G17 riboswitch (SEQ ID NO.: 15) was inserted in the leader peptide sequences of the anti-KDR antibody gene and into the Stul site in mouse erythropoietin gene using Gibson cloning strategy (NEB). Constructs containing mouse erythropoietin (Epo) or anti-KDR antibody were transfected into HEK 293 cells. Four hour after transfection, the media was aspirated, and new media with or without 500 μM guanine was added. Supernatants were subjected to ELISA assay for the production of either anti-KDR antibody or the production of mouse Epo (R&D Systems).
Constructs were made using Golden Gate cloning strategy (NEB). […] Luciferase activity was assayed as described in Example 5.
The Con1 construct was used as a template for PCR amplification of intron fragments that have either upstream or downstream intron deletions. To generate constructs that have single intron deletions, PCR products were cloned into the constructs containing the xpt-G17 riboswitch using Golden Gate cloning strategy (NEB). To generate constructs with both upstream and downstream intron deletions, fragments released by EcoRI and BamHI from constructs with single deletions in the downstream intron sequence were cloned into EcoRI and BamHI-digested constructs with single deletions in the upstream intron sequence.
Sequences of mutant human Wilms tumor 1 exon 5 (mutWT1-e5, SEQ ID NO.: 61), SIRT1 exon 6 (SIRT1-e6, SEQ ID NO.: 62), mouse calcium/calmodulin-dependent protein kinase II delta exon 16, or 17 (Camk2d-e16 or e17, SEQ ID NOs.: 59, 60), and synthetic exon ENEEE (SEQ ID NO.: 63) were synthesized (IDT) and cloned into the DHFR-G17 vector in place of the DHFR exon using Gibson Cloning kit (NEB). Plasmid DNA was transfected into HEK 293 cells, treated with 500 μM guanine, and luciferase assay performed as described in Example 1. The sequences of each exon with 5′ and 3′ splice sites are shown with exonic sequences in uppercase letters (Table 5, SEQ ID NOS.: 59 to 63).

[3] = system: luciferase expression in HepG2 cells; type: cell-based
Method: as §1

[4] = system: luciferase expression in HEK 293 cells; type: cell-based; settings: for luciferase expression with / without theophylline (in words): HEK 293 cells
From the text: A DHFR-acceptor vector was constructed to facilitate the cloning of an aptamer sequence attached to the hairpin stems with different length. The theophylline aptamer sequence used was: ggcgatac[…]gcagegtc (SEQ ID NO:9). Theophylline aptamer oligonucleotides (“oligos”) with 4 nucleotide overhang at 5′ end were synthesized (IDT), annealed and ligated to BsaI-digested DHFR-acceptor vector. HEK 293 cells were transfected with the luciferase reporter constructs with the regulation cassette containing the theophylline aptamer, as described in Example 1. Four hours after transfection, the media was aspirated, and new media with or without 3 mM theophylline was added, and luciferase was assayed 20 to 24 hours after theophylline treatment. The fold induction was expressed as the quotient of luciferase activity obtained in the presence of aptamer ligand divided by the value obtained in the absence of the aptamer ligand.

[5] = system: firefly luciferase gene expression in HEK 293 cells; experiment: Firefly luciferase assay of HEK 293 cells transfected with splicing / Intron-Exon-Intron constructs (no ligand); type: cell-based
Method: Transfection: 3.5×10^4 HEK 293 cells were plated in 96-well flat bottom plate the day before transfection. Plasmid DNA (500 ng) was added to a tube or a 96-well U-bottom plate. Separately, TransIT-293 reagent (Mirus; 1.4 uL) was added to 50 μL Opti-mem I media (Life Technologies), and allowed to sit for 5 minutes at room temperature (RT). Then, 50 μL of this diluted transfection reagent was added to the DNA, mixed, and incubated at room temperature (“RT”) for 20 min. Finally, 7 μL of this solution was added to a well of cells in the 96-well plate.
Firefly luciferase assay of cultured cells: 24 hours after media change, plates were removed from the incubator, and equilibrated to RT for several minutes on a lab bench, then aspirated. Glo-lysis buffer (Promega, 100 μL, RT) was added, and the plates allowed to remain at RT for at least 5 minutes. Then, the well contents were mixed by 50 μL trituration, and 20 μL of each sample was mixed with 20 μL of bright-glo reagent (Promega) that had been diluted to 10% in glo-lysis buffer. 96 wells were spaced on an opaque white 384-well plate. Following a 5 min incubation at RT, luminescence was measured using Tecan machine with 500 mSec read time. The luciferase activity was expressed as mean relative light unit (RLU)±S.D.
The constructs were verified by DNA sequencing (Genewiz). DNA was transfected in HEK 293 cells and assayed for luciferase activity as described in Example 1.
Sequences containing the DHFR exon 2 with native 3′ and 5′ ss sequences, in which the 5′ss was embedded in a hairpin structure were synthesized (IDT), and cloned into the indicated vector using Golden Gate cloning strategy (NEB). Constructs were transfected into HEK 293 cells and assayed for luciferase activity as described in Example 1.

Nc1nc2c(ncn2[C@@H]2O[C@H](CO)[C@@H](O)[C@H]2O)c(=O)[nH]1 [guanosine]
fold induction at 100 mg/kg ([1]; Mus musculus, ip, 100 mg/kg guanosine intraperitoneally, 11 hours post DNA injection, read-out: fold induction of luciferase compared to uninduced baseline): 4.7
fold induction at 300 mg/kg ([1]; Mus musculus, ip, 300 mg/kg guanosine intraperitoneally, 11 hours post DNA injection, read-out: fold induction of luciferase compared to uninduced baseline): 16.2
luciferase expression in liver after oral guanosine (in words) ([1]; oral dosing 2 hr and 12 hr after DNA delivery): higher luciferase expression at 9 hours post DNA; also recorded: dose related activation of expression of the regulated target gene in the liver of the mice
time of highest luciferase expression post DNA injection ([1]; oral guanosine): 48 h

DHFR_G14: luciferase construct with xpt-guanine aptamer cassette, truncated stem (chain 1 GTAGAAGGTAATGTGATAT; chain 2 CTATCACATTACGCAC; expressed or natural sequence)
induced luciferase level as percent of Con1 (maximal expression) [2]: ~100%

DHFR_G15: luciferase construct with the xpt-G15 containing regulatory cassette (SEQ ID NO: 46) (chain 1 GTAGAAGGTAATGTGTAT; chain 2 CTACACATTACGCAC; chemistry not fully specified)
fold induction of luciferase expression over un-induced baseline [2]: 60 fold
induced luciferase level as percent of Con1 (maximal expression) [2]: ~100%

DHFR_G16: luciferase construct with xpt-guanine aptamer cassette, truncated stem (chain 1 GTAGAAGGTAATGTTAT; chain 2 CTAACATTACGCAC; chemistry not fully specified)
fold induction of luciferase expression over un-induced baseline [2]: about 800 fold
induced luciferase level as percent of Con1 (maximal expression) [2]: 83%

DHFR_G17: luciferase construct containing xpt-G17 regulatory cassette (SEQ ID NO: 15) (chain 1 GTAGAAGGTAATGTAT; chain 2 CTACATTACGCAC; chemistry not fully specified)
induced luciferase level as percent of Con1 (maximal expression) [2]: about 65%
fold induction of luciferase expression [3]: more than 500 fold

DHFR_Theo13: theophylline aptamer cassette, 8 bp stem (chain 1 TTCAGTAGAAGGTAATGTGA; chain 2 GCACATTACGCACCAT; chemistry not fully specified)
luciferase expression with / without theophylline (in words) [4]: luciferase expression is suppressed in the absence of theophylline
luciferase level as percent of Con1 control vector ([4]; in the presence of theophylline (3 mM)): about 56%

DHFR_Theo14: theophylline aptamer cassette, 7 bp stem (chain 1 TTCAGTAGAAGGTAATGTA; chain 2 GACATTACGCACCAT; expressed or natural sequence)
luciferase expression with / without theophylline (in words) [4]: no luciferase expression either with or without theophylline

B1: DHFR_Con15ss_HP15x: 15 bp hairpin with broken stem; SEQ ID NO: 55 (nucleic acid)
DNA: GAGTAACGCTGTTTCTCTAACTTGTAGGAATGAATTCAGATATTTCCAGAGAATGACCACAACCTCTTCAGTAGAGGGTGAGTTGGCGAAAAACAGCATAAAGTAT
modifications: expressed or natural sequence
luciferase expression relative to control constructs (in words) [5]: not able to restore luciferase expression; also recorded: does not restore luciferase expression

B2: DHFR_wtmtSRp40_HP15: DHFR_wtmtSRp40 with 5′ss in hairpin; SEQ ID NO: 56 (nucleic acid)
DNA: GAGTAACGCTGTTTCTCTAACTTGTAGGAATGAATTCAGATATTTCCAGAGAATGAAAAAAAAATCTTCAGTAGAAGGTAATGTGGCGAAAGCCACATTACCTTCT
modifications: expressed or natural sequence
luciferase expression relative to control constructs (in words) [5]: restored luciferase expression

B3: DHFR_wtmtSRp40_HP15x: DHFR_wtmtSRp40 with broken hairpin; SEQ ID NO: 57 (nucleic acid)
DNA: B2 DNA with G92A, C93A, C96G, T98A, T99C, A100T, C101G, C102A, T103G, C105A
modifications: expressed or natural sequence
luciferase expression relative to control constructs (in words) [5]: blocked luciferase expression; also recorded: prevents expression of luciferase

B4: 2IR-3: xpt-G17 cassette, two intron deletions; SEQ ID NO: 31 (nucleic acid)
DNA: GTGAGTCTATGGGACCCTTGATGTTTTCTTTCCCTGCTCAAATCAGGGTAATTTTGCATTTGTAATTTTAAAAAATGCTTTCTTCTTTTAATATACTTTTTTGTTTATCTTATTTCTAATACTTTCCCTAATCTCTTTCTTTCAGGGCAATAATGATACAATGTATCATGCCGAGTAACGCTGTTTCTCTAACTTGTAGGAATGAATTCAGATATTTCCAGAGAATGAAAAAAAAATCTTCAGTAGAAGGTAATGTATAATCGCGTGGATATGGCACGCAAGTTTCTACCGGGCACCGTAAATGTCCGACTACATTACGCACCATTCTAAAGAATAACAGTGATAATTTCTGGGTTAAGGCAATAGCTGCTGAGGTTTCATATTGCTAATAGCAGCTACAATCCAGCTACCATTCTGCTTTTATTTTATGGTTGGGATAAGGCTGGATTATTCTGAGTCCAAGCTAGGCCCTTTTGCTAATCATGTTCATACCTCTTATCTTCCTCCCACAG
modifications: xpt-G17-2IR-3
fold induction of luciferase expression over un-induced baseline [2]: 4744 fold
regulation of luciferase expression by guanine (in words) [2]: significant increase in the fold of target gene expression

B5: Camk2d-e16: DHFR-G17 vector with mouse calcium/calmodulin-dependent protein kinase II delta exon 16 in place of DHFR exon; SEQ ID NO: 59 (nucleic acid)
DNA: GAGTAACGCTGTTTCTCTAACTTGTAGTGAGCCCCAAACTACTGTAATCCACAACCCTGACGGAAACAAGGTAATGT
regulation of luciferase expression by guanine (in words) ([2]; listed as CaMKIId-e16): equivalent fold induction to the DHFR exon with SRp40 activating mutation (mtDHFR)
regulation of luciferase expression by guanine (in words) ([2]; listed as CamkIId-e16): nearly equivalent fold induction compared to DHFR-xpt-G17
